Measurements from patent US10738028B2, “Spiro three-membered ring, spiro five-membered ring peptide deformylase inhibitor and use thereof in antibacteria and anti-tumor” (priority 2016, dated 2020).

Columns and labels:
Format in all cases: cell-based
[1] = test system: HCT-116 colorectal cancer cell line; assay: CCK-8 proliferation inhibition; details: concentration of 30 μM, 72 hours, CCK-8; for HCT116 inhibition rate/%: 30 µM
Summary of the method: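 HCT-116 cells, seeded at 2000 cells/well in McCoy's 5A with 10% newborn bovine serum, were cultured overnight at 37° C., 5% CO2, then exposed to compound dilutions in medium for 72 hours. Viability was read with 1:10 diluted CCK-8; controls received 1‰ DMSO.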

[2] = test system: BEL-7402 liver cancer cell line; assay: CCK-8 proliferation inhibition; details: concentration of 30 μM; for Inhibition of proliferation, Liver cancer BEL-7402: 72 hours, 30 µM
Summary of the method: (§1)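 Plating at 2000 cells/well, then incubation overnight at 37° C. Next, a range of compound concentrations for 72 hours (control 1‰ DMSO). Finally, medium decanted and CCK-8 diluted 1:10 added.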

[3] = test system: A549 lung cancer cell line; assay: CCK-8 proliferation inhibition; details: concentration of 30 μM; for inhibition at 30 µM: Homo sapiens, A549, 72 h; for Inhibition of proliferation, Lung cancer A549: 72 hours, 30 µM
Summary of the method: as §1

[4] = test system: MGC-803 gastric cancer cell line; assay: CCK-8 proliferation inhibition; details: concentration of 30 μM; for inhibition at 30 µM: Homo sapiens, MGC-803, 72 h
Summary of the method: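 Cells were seeded at 2000 cells/well and cultured overnight at 37° C, 5% CO2, then exposed for 72 hours to compounds diluted from DMSO stocks. Controls received 1‰ DMSO. CCK-8 (1:10 diluted) replaced the medium. MGC-803 and Jurkat were grown in 1640, PC3 in F12, and MCF-7 in DMEM high glucose, each with 10% newborn bovine serum.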

[5] = test system: Streptococcus pneoumoniae (SPN); assay: MIC, two-fold agar dilution (CLSI), clinical isolates
Summary of the method: (§2)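 CLSI two-fold agar dilution; MIC of test samples read per tested strain.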

[6] = test system: methicillin-sensitive Staphylococcus epidermidis (MSSE); assay: as above
Summary of the method: as §2

[7] = test system: Escherichia coli (including ESBLs, non-ESBLs); assay: as above
Summary of the method: as §2

[8] = test system: methicillin-resistant Staphylococcus epidermidis (MRSE); assay: as above
Summary of the method: as §2

[9] = test system: methicillin-resistant Staphylococcus aureus (MRSA); assay: as above
Summary of the method: as §2

[10] = test system: methicillin-sensitive Staphylococcus aureus (MSSA); assay: as above
Summary of the method: as §2

[11] = test system: Enterococcus faecium (EFM); assay: as above
Summary of the method: as §2

[12] = test system: Enterococcus faecalis (EFA); assay: as above
Summary of the method: as §2

[13] = test system: Moraxella catarrhalis (BCA); assay: as above
Summary of the method: as §2

## CCCC[C@H](CC(=O)NO)C(=O)N1CC2(CCCC2)C[C@H]1C(=O)Nc1ccc(F)cn1 [Example 78, (S)—N-(5-fluoropyridin-2-yl)-2-((R)-2-(2-(hydroxyamino)-2-oxoethyl)hexanoyl)-2-spiro[4.4]nonane-3-carboxamide]
[1]; Homo sapiens, HCT-116, 72 h, read-out: HCT116 inhibition rate/%
  inhibition at 30 µM: > 50%
[1]
  HCT116 inhibition rate/%: 52%
[2]; Homo sapiens, Bel-7402, 72 h
  inhibition at 30 µM: > 50%
[2]
  Inhibition of proliferation, Liver cancer BEL-7402: 67%
[3]
  inhibition at 30 µM: > 50%
  Inhibition of proliferation, Lung cancer A549: 54%
[4]
  inhibition at 30 µM: 44%
[5]; strain SPN 16-2
  Anti-bacterial activity (MIC): 0.03 µg/mL
[5]; strain SPN 16-4
  Anti-bacterial activity (MIC): 0.25 µg/mL
[6]; clinical isolate MSSE 15-3
  Anti-bacterial activity (MIC), strain MSSE 15-3: 0.25 µg/mL
[6]; clinical isolate MSSE 15-4
  Anti-bacterial activity (MIC), strain MSSE 15-4: 0.25 µg/mL
[6]; clinical isolate MSSE 15-5
  Anti-bacterial activity (MIC), strain MSSE 15-5: 0.25 µg/mL
[6]; clinical isolate MSSE 15-6
  Anti-bacterial activity (MIC), strain MSSE 15-6: 0.03 µg/mL
[7]; clinical isolate ECO+ 15-1
  Anti-bacterial activity (MIC), strain ECO+ 15-1: 16 µg/mL
[7]; clinical isolate ECO+ 15-2
  Anti-bacterial activity (MIC), strain ECO+ 15-2: > 32 µg/mL
[7]; clinical isolate ECO+ 15-3
  Anti-bacterial activity (MIC), strain ECO+ 15-3: > 32 µg/mL
[7]; clinical isolate ECO+ 15-4
  Anti-bacterial activity (MIC), strain ECO+ 15-4: > 32 µg/mL
[7]; clinical isolate ECO− 15-1
  Anti-bacterial activity (MIC), strain ECO− 15-1: > 32 µg/mL
[7]; clinical isolate ECO− 15-2
  Anti-bacterial activity (MIC), strain ECO− 15-2: > 32 µg/mL
[7]; clinical isolate ECO− 15-3
  Anti-bacterial activity (MIC), strain ECO− 15-3: > 32 µg/mL
[7]; clinical isolate ECO− 15-4
  Anti-bacterial activity (MIC), strain ECO− 15-4: > 32 µg/mL
[8]; clinical isolate MRSE 15-1
  Anti-bacterial activity (MIC), strain MRSE 15-1: 0.125 µg/mL
[8]; clinical isolate MRSE 15-2
  Anti-bacterial activity (MIC), strain MRSE 15-2: 1 µg/mL
[8]; clinical isolate MRSE 15-3
  Anti-bacterial activity (MIC), strain MRSE 15-3: 1 µg/mL
[8]; clinical isolate MRSE 15-7
  Anti-bacterial activity (MIC), strain MRSE 15-7: 1 µg/mL
[9]; clinical isolate MRSA 15-1
  Anti-bacterial activity (MIC), strain MRSA 15-1: 0.06 µg/mL
[9]; clinical isolate MRSA 15-2
  Anti-bacterial activity (MIC), strain MRSA 15-2: 0.5 µg/mL
[9]; clinical isolate MRSA 15-3
  Anti-bacterial activity (MIC), strain MRSA 15-3: 0.125 µg/mL
[9]; clinical isolate MRSA 15-4
  Anti-bacterial activity (MIC), strain MRSA 15-4: 0.5 µg/mL
[10]; clinical isolate MSSA 15-3
  Anti-bacterial activity (MIC), strain MSSA 15-3: 0.5 µg/mL
[10]; clinical isolate MSSA 15-4
  Anti-bacterial activity (MIC), strain MSSA 15-4: 0.125 µg/mL
[10]; clinical isolate MSSA 15-5
  Anti-bacterial activity (MIC), strain MSSA 15-5: 0.03 µg/mL
[10]; clinical isolate MSSA 15-6
  Anti-bacterial activity (MIC), strain MSSA 15-6: > 32 µg/mL
[11]; strain EFM 15-1
  Anti-bacterial activity (MIC): > 32 µg/mL
[11]; strain EFM 15-2
  Anti-bacterial activity (MIC): > 32 µg/mL
[11]; strain EFM 15-3
  Anti-bacterial activity (MIC): > 32 µg/mL
[11]; strain EFM 15-4
  Anti-bacterial activity (MIC): 2 µg/mL
[11]; strain EFM 15-5
  Anti-bacterial activity (MIC): 0.25 µg/mL
[11]; strain EFM 15-6
  Anti-bacterial activity (MIC): 1 µg/mL
[12]; strain EFA 15-1
  Anti-bacterial activity (MIC): > 32 µg/mL
[12]; strain EFA 15-2
  Anti-bacterial activity (MIC): > 32 µg/mL
[12]; strain EFA 15-3
  Anti-bacterial activity (MIC): > 32 µg/mL
[12]; strain EFA 15-4
  Anti-bacterial activity (MIC): > 32 µg/mL
[12]; strain EFA 15-5
  Anti-bacterial activity (MIC): > 32 µg/mL
[12]; strain EFA 15-6
  Anti-bacterial activity (MIC): > 32 µg/mL
[12]; strain EFA 15-9
  Anti-bacterial activity (MIC): > 32 µg/mL
[13]; strain BCA 14-1
  Anti-bacterial activity (MIC): 0.5 µg/mL
[13]; strain BCA 14-4
  Anti-bacterial activity (MIC): 1 µg/mL
[13]; strain BCA 14-5
  Anti-bacterial activity (MIC): 1 µg/mL
[13]; strain BCA 14-6
  Anti-bacterial activity (MIC): 0.5 µg/mL
[13]; strain BCA 14-7
  Anti-bacterial activity (MIC): 0.5 µg/mL
[13]; strain BCA 14-8
  Anti-bacterial activity (MIC): 0.25 µg/mL
[13]; strain BCA 14-10
  Anti-bacterial activity (MIC): 0.25 µg/mL

## CCCC[C@H](CC(=O)NO)C(=O)N1CC2(CCCC2)C[C@H]1C(=O)Nc1ncc(C)s1 [Example 79, (S)-2-((R)-2-(2-(hydroxyamino)-2-oxoethyl)hexanoyl)-N-(5-methylthiazol-2-yl)-2-azaspiro[4.4]nonane-3-amide]
[1]
  HCT116 inhibition rate/%: 75%
[2]
  Inhibition of proliferation, Liver cancer BEL-7402: 77%
[3]
  inhibition at 30 µM: > 50%
  Inhibition of proliferation, Lung cancer A549: 50%
[4]
  inhibition at 30 µM: > 50%
[4]; 72 hours, 30 µM
  Inhibition of proliferation, Gastric cancer MGC-803: 54%
[5]; strain SPN 16-2
  Anti-bacterial activity (MIC): 0.06 µg/mL
[5]; strain SPN 16-4
  Anti-bacterial activity (MIC): 0.25 µg/mL
[6]; strain MSSE 15-3
  Anti-bacterial activity (MIC): 0.25 µg/mL
[6]; strain MSSE 15-4
  Anti-bacterial activity (MIC): 1 µg/mL
[6]; strain MSSE 15-5
  Anti-bacterial activity (MIC): 1 µg/mL
[6]; strain MSSE 15-6
  Anti-bacterial activity (MIC): 0.03 µg/mL
[7]; strain ECO+ 15-1
  Anti-bacterial activity (MIC): 32 µg/mL
[7]; strain ECO+ 15-2
  Anti-bacterial activity (MIC): > 32 µg/mL
[7]; strain ECO+ 15-3
  Anti-bacterial activity (MIC): > 32 µg/mL
[7]; strain ECO+ 15-4
  Anti-bacterial activity (MIC): > 32 µg/mL
[7]; strain ECO− 15-1
  Anti-bacterial activity (MIC): > 32 µg/mL
[7]; strain ECO− 15-2
  Anti-bacterial activity (MIC): > 32 µg/mL
[7]; strain ECO− 15-3
  Anti-bacterial activity (MIC): > 32 µg/mL
[7]; strain ECO− 15-4
  Anti-bacterial activity (MIC): > 32 µg/mL
[8]; strain MRSE 15-1
  Anti-bacterial activity (MIC): 0.25 µg/mL
[8]; strain MRSE 15-2
  Anti-bacterial activity (MIC): 2 µg/mL
[8]; strain MRSE 15-3
  Anti-bacterial activity (MIC): 2 µg/mL
[8]; strain MRSE 15-7
  Anti-bacterial activity (MIC): 2 µg/mL
[9]; strain MRSA 15-1
  Anti-bacterial activity (MIC): 0.25 µg/mL
[9]; strain MRSA 15-2
  Anti-bacterial activity (MIC): 0.25 µg/mL
[9]; strain MRSA 15-3
  Anti-bacterial activity (MIC): 0.125 µg/mL
[9]; strain MRSA 15-4
  Anti-bacterial activity (MIC): 0.25 µg/mL
[10]; strain MSSA 15-3
  Anti-bacterial activity (MIC): 0.5 µg/mL
[10]; strain MSSA 15-4
  Anti-bacterial activity (MIC): 0.125 µg/mL
[10]; strain MSSA 15-5
  Anti-bacterial activity (MIC): 0.125 µg/mL
[10]; strain MSSA 15-6
  Anti-bacterial activity (MIC): > 32 µg/mL
[11]; strain EFM 15-1
  Anti-bacterial activity (MIC): 32 µg/mL
[11]; strain EFM 15-2
  Anti-bacterial activity (MIC): 32 µg/mL
[11]; strain EFM 15-3
  Anti-bacterial activity (MIC): 32 µg/mL
[11]; strain EFM 15-4
  Anti-bacterial activity (MIC): 1 µg/mL
[11]; strain EFM 15-5
  Anti-bacterial activity (MIC): 1 µg/mL
[11]; strain EFM 15-6
  Anti-bacterial activity (MIC): 1 µg/mL
[12]; strain EFA 15-1
  Anti-bacterial activity (MIC): 32 µg/mL
[12]; strain EFA 15-2
  Anti-bacterial activity (MIC): 32 µg/mL
[12]; strain EFA 15-3
  Anti-bacterial activity (MIC): 32 µg/mL
[12]; strain EFA 15-4
  Anti-bacterial activity (MIC): 32 µg/mL
[12]; strain EFA 15-5
  Anti-bacterial activity (MIC): 32 µg/mL
[12]; strain EFA 15-6
  Anti-bacterial activity (MIC): 32 µg/mL
[12]; strain EFA 15-9
  Anti-bacterial activity (MIC): 32 µg/mL
[13]; strain BCA 14-1
  Anti-bacterial activity (MIC): 0.25 µg/mL
[13]; strain BCA 14-4
  Anti-bacterial activity (MIC): 1 µg/mL
[13]; strain BCA 14-5
  Anti-bacterial activity (MIC): 0.25 µg/mL
[13]; strain BCA 14-6
  Anti-bacterial activity (MIC): 1 µg/mL
[13]; strain BCA 14-7
  Anti-bacterial activity (MIC): 0.5 µg/mL
[13]; strain BCA 14-8
  Anti-bacterial activity (MIC): 0.5 µg/mL
[13]; strain BCA 14-10
  Anti-bacterial activity (MIC): 0.25 µg/mL
